# From US9334289B2, “Cephem compound having catechol or pseudo-catechol structure” (SHIONOGI & CO., LTD., priority 2011, dated 2016)
# Legend:
# Format in all cases: cell-based
# [1] = system: P. aeruginosa SR24837; assay: MIC, CLSI broth microdilution, Test Example 1; settings: PER-1 ESBL producing strain, cation-adjusted Mueller Hinton broth containing human apo-transferrin, 5×10^5 cfu/mL
# Protocol: (§1) Measurement of Minimum Inhibitory Concentration (MIC: μg/mL) was conducted according to CLSI (Clinical and Laboratory Standards Institute) method, and the amount of bacteria for inoculation was 5×10^5 cfu/mL, and cation-adjusted Mueller Hinton broth containing human apo-transferrin was used as a test medium, and the experiment was conducted using broth microdilution method. The bacteria used are listed below.
# [2] = system: K. pneumoniae ATCCBAA-1705; assay: MIC, CLSI broth microdilution, Test Example 1; settings: KPC-2 carbapenemase producing strain, cation-adjusted Mueller Hinton broth containing human apo-transferrin, 5×10^5 cfu/mL
# Protocol: as §1
# [3] = system: E. coli ATCCBAA-199; assay: MIC, CLSI broth microdilution, Test Example 1; settings: SHV-3 ESBL producing strain, cation-adjusted Mueller Hinton broth containing human apo-transferrin, 5×10^5 cfu/mL
# Protocol: as §1
# [4] = system: P. aeruginosa SR27060; assay: MIC, CLSI broth microdilution, Test Example 1; settings: IMP-1 MBL producing strain (carbapenem resistance strain), cation-adjusted Mueller Hinton broth containing human apo-transferrin, 5×10^5 cfu/mL
# Protocol: as §1
# [5] = system: A. baumannii SR27323; assay: MIC, CLSI broth microdilution, Test Example 1; settings: OXA-23, OXA-58 carbapenemase producing strain, cation-adjusted Mueller Hinton broth containing human apo-transferrin, 5×10^5 cfu/mL
# Protocol: as §1
# [6] = system: E. coli ATCCBAA-200; assay: MIC, CLSI broth microdilution, Test Example 1; settings: SHV-4 ESBL producing strain, cation-adjusted Mueller Hinton broth containing human apo-transferrin, 5×10^5 cfu/mL
# Protocol: as §1
# [7] = system: P. aeruginosa SR24; assay: MIC, CLSI broth microdilution, Test Example 1; settings: Ceftazidime resistance strain, cation-adjusted Mueller Hinton broth containing human apo-transferrin, 5×10^5 cfu/mL
# [8] = system: E. coli SR01337; assay: MIC, CLSI broth microdilution, Test Example 2; settings: Escherichia coli, SR01337; TEM-1 ESBL producing strain; cation-adjusted Iso-Sensitest broth containing human Apo-transferrin; 5×10^5 cfu/mL; read-out: Minimum Inhibitory Concentration (MIC) E. coli SR01337
# In short: (§2)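 Broth microdilution per CLSI, inoculum 5×10^5 cfu/mL, in cation-adjusted Iso-Sensitest broth supplemented with human Apo-transferrin. MIC reported in μg/mL.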
# [9] = system: E. coli ATCCBAA-196; assay: MIC, CLSI broth microdilution, Test Example 2; settings: Escherichia coli, ATCCBAA196; TEM-10 ESBL producing strain; cation-adjusted Iso-Sensitest broth containing human Apo-transferrin; 5×10^5 cfu/mL; read-out: Minimum Inhibitory Concentration (MIC) E. coli ATCC BAA-196
# In short: as §2
# [10] = system: E. cloacae NCTC13464; assay: MIC, CLSI broth microdilution, Test Example 2; settings: Enterobacter cloacae, NCTC13464; CTX-M group 9 ESBL producing strain; cation-adjusted Iso-Sensitest broth containing human Apo-transferrin; 5×10^5 cfu/mL; read-out: Minimum Inhibitory Concentration (MIC) E. cloacae NCTC 13464
# In short: as §2
# [11] = system: P. aeruginosa SR01332; assay: MIC, CLSI broth microdilution, Test Example 2; settings: Pseudomonas aeruginosa, SR01332; VIM-11 MBL producing strain (carbapenem resistance strain); cation-adjusted Iso-Sensitest broth containing human Apo-transferrin; 5×10^5 cfu/mL; read-out: Minimum Inhibitory Concentration (MIC) P. aeruginosa SR01332
# In short: as §2
# [12] = system: P. aeruginosa SR01335; assay: MIC, CLSI broth microdilution, Test Example 2; settings: Pseudomonas aeruginosa, SR01335; VIM-1 like MBL producing strain (carbapenem resistance strain); cation-adjusted Iso-Sensitest broth containing human Apo-transferrin; 5×10^5 cfu/mL; read-out: Minimum Inhibitory Concentration (MIC) P. aeruginosa SR01335
# In short: as §2
# [13] = system: A. baumannii SR01331; assay: MIC, CLSI broth microdilution, Test Example 2; settings: Acinetobacter baumannii, SR01331; PER-1, OXA-23.51 ESBL- & OXA-type carbapenemase producing strain; cation-adjusted Iso-Sensitest broth containing human Apo-transferrin; 5×10^5 cfu/mL; read-out: Minimum Inhibitory Concentration (MIC) A. baumannii SR01331
# In short: as §2
# [14] = system: K. pneumoniae ATCC700603; assay: MIC, CLSI broth microdilution, Test Example 2; settings: Klebsiella pneumoniae, ATCC700603; SHV18 ESBL producing strain; cation-adjusted Iso-Sensitest broth containing human Apo-transferrin; 5×10^5 cfu/mL; read-out: Minimum Inhibitory Concentration (MIC) K. pneumoniae ATCC 700603
# In short: as §2
# [15] = system: E. coli ATCCBAA-200; assay: MIC, CLSI broth microdilution, Test Example 2; settings: Escherichia coli, ATCCBAA200; SHV-4 ESBL producing strain; cation-adjusted Iso-Sensitest broth containing human Apo-transferrin; 5×10^5 cfu/mL; read-out: Minimum Inhibitory Concentration (MIC) E. coli ATCC BAA-200
# In short: as §2
structure (smiles),measurement,setting,value
CC(C)(O/N=C(\C(=O)N[C@@H]1C(=O)N2C(c3nnn[n-]3)=C(C[N+]3(C)[C@@H]4CC[C@H]3C[C@@H](NC(=O)c3ccc(O)c(O)c3Cl)C4)CS[C@H]12)c1nc(N)sc1Cl)C(=O)[O-].[Na+] (stereo partly shown) [Compound I-86],MIC,"[1]; Pseudomonas aeruginosa, SR24837, read-out: Minimum Inhibitory Concentration (MIC) P. aeruginosa SR24837",≤ 0.031 µg/mL
same,MIC,"[2]; Klebsiella pneumoniae, ATCCBAA1705, read-out: Minimum Inhibitory Concentration (MIC) K. pneumoniae ATCCBAA-1705",0.063 µg/mL
same,MIC,"[3]; Escherichia coli, ATCCBAA199, read-out: Minimum Inhibitory Concentration (MIC) E. coli ATCC BAA-199",0.5 µg/mL
same,MIC,"[4]; Pseudomonas aeruginosa, SR27060, read-out: Minimum Inhibitory Concentration (MIC) P. aeruginosa SR27060",0.25 µg/mL
same,MIC,"[5]; Acinetobacter baumannii, SR27323, read-out: Minimum Inhibitory Concentration (MIC) A. baumannii SR27323",2 µg/mL
same,MIC,"[6]; Escherichia coli, ATCCBAA200, read-out: Minimum Inhibitory Concentration (MIC) E. coli ATCC BAA-200",0.5 µg/mL
same,MIC,"[7]; Pseudomonas aeruginosa, SR24, read-out: Minimum Inhibitory Concentration (MIC) P. aeruginosa SR24",0.063 µg/mL
same,MIC,[8],≤ 0.031 µg/mL
same,MIC,[9],0.125 µg/mL
same,MIC,[10],0.5 µg/mL
same,MIC,[11],8 µg/mL
same,MIC,[12],4 µg/mL
same,MIC,[13],0.5 µg/mL
same,MIC,[14],0.25 µg/mL
same,MIC,[15],1 µg/mL
C[N+](C)(CCNC(=O)c1ccc(O)c(O)c1Cl)CC1=C(c2nnn[n-]2)N2C(=O)C(NC(=O)C(=NOC(CC(=O)[O-])C(=O)[O-])c3csc(N)n3)C2SC1.[Na+].[Na+] (stereo not shown) [Compound I-92],Minimum Inhibitory Concentration (MIC) P. aeruginosa SR24837,[1],0.25 µg/mL
same,Minimum Inhibitory Concentration (MIC) K. pneumoniae ATCCBAA-1705,[2],≦0.031 μg/ml
same,Minimum Inhibitory Concentration (MIC) E. coli ATCC BAA-199,[3],0.063 µg/mL
same,Minimum Inhibitory Concentration (MIC) P. aeruginosa SR27060,[4],2 µg/mL
same,Minimum Inhibitory Concentration (MIC) A. baumannii SR27323,[5],0.5 µg/mL
same,Minimum Inhibitory Concentration (MIC) E. coli ATCC BAA-200,[6],0.125 µg/mL
same,Minimum Inhibitory Concentration (MIC) P. aeruginosa SR24,[7],0.25 µg/mL
